Read-outs that look alike come from different tables or passages of the source. Blank lines part the entries; values can stand above or below the compound they belong to.
Legend:
[1] = reagent table, cited from earlier work
[2] = Average particle size and PDI of paliperidone after wet grinding (nanonization); assay type: physicochemical
Experimental: Active pharmaceutical ingredient: stabilizer = 5:1. The ball mill speed was 400 r·min^-1, the grinding media was 0.2 mm of zirconia beads with a volume of 20 mL, and the grinding time was 50 min. The effects of stabilizer types Poloxamer 188 (P188), Tween 80, Poloxamer 407 (P407), SDS, HPMC on the average particle size and PDI (PDI is a dimensionless value reflecting the width of particle size distribution, ranging from 0 to 1, a smaller value indicates a more uniform and narrower particle size distribution) of the active pharmaceutical ingredient after grinding are investigated. Table 29 Effects of different stabilizers on average particle size and PDI
Active pharmaceutical ingredient: stabilizer = 5:1. The ball mill speed was 400 r·min^-1, Poloxamer 188 was used as the stabilizer, the grinding media was 20 mL, and the grinding time was 50 min. The effects of 0.1 mm, 0.2 mm, and 0.3 mm zirconia beads on the average particle size and PDI of the active pharmaceutical ingredient after grinding were investigated. Table 30 Effects of different types of grinding media on average particle size and PDI
Active pharmaceutical ingredient: stabilizer = 5:1. The ball mill speed was 400 r·min^-1, Poloxamer 188 was used as the stabilizer, the grinding media was 0.1 mm zirconia beads. The effects of grinding time for 15 min, 25 min, 35 min, 45 min, 50 min, 60 min on the average particle size and PDI of the active pharmaceutical ingredient after grinding were investigated. Table 31 Effects of different grinding time on average particle size and PDI

[3] = stabilizer HPMC, 0.2 mm zirconia beads, grinding 50 min
[4] = stabilizer P188, 0.1 mm zirconia beads, grinding 15 min
[5] = stabilizer P188, 0.1 mm zirconia beads, grinding 25 min
[6] = stabilizer P188, 0.1 mm zirconia beads, grinding 35 min
[7] = stabilizer P188, 0.1 mm zirconia beads, grinding 45 min
[8] = stabilizer P188, 0.1 mm zirconia beads, grinding 50 min
[9] = stabilizer P188, 0.1 mm zirconia beads, grinding 60 min
[10] = stabilizer P188, 0.2 mm zirconia beads, grinding 50 min
[11] = stabilizer P188, 0.3 mm zirconia beads, grinding 50 min
[12] = stabilizer P407, 0.2 mm zirconia beads, grinding 50 min
[13] = stabilizer SDS, 0.2 mm zirconia beads, grinding 50 min
[14] = stabilizer Tween, 0.2 mm zirconia beads, grinding 50 min

SMILES: C#C[C@]1(O)C=C[C@H]2[C@@H]3CCC4=CC(=O)CC[C@@H]4[C@H]3CC[C@@]21CC [Gestodene]
solubility ([1]; in water): Gestodene (purity 98%), molecular weight: 310.43, insoluble in water

SMILES: CC(=O)O[C@H]1C(=O)[C@@]2(C)[C@H]([C@H](OC(=O)c3ccccc3)[C@]3(O)C[C@H](OC(=O)[C@H](O)[C@@H](NC(=O)c4ccccc4)c4ccccc4)C(C)=C1C3(C)C)[C@]1(OC(C)=O)CO[C@@H]1C[C@@H]2O [Paclitaxel]
solubility ([1]; in water): Paclitaxel (purity 99%), molecular weight: 853.92, insoluble in water

Average particle size [2, 3]: 330 nm | PDI [2, 3]: 0.18 | Average particle size [2, 4]: 820 nm | PDI [2, 4]: 0.13 | Average particle size [2, 5]: 646 nm | PDI [2, 5]: 0.14 | Average particle size [2, 6]: 430 nm | PDI [2, 6]: 0.09 | Average particle size [2, 7]: 246 nm | PDI [2, 7]: 0.08 | Average particle size [2, 8]: 220 nm | PDI [2, 8]: 0.06 | Average particle size [2, 9]: 253 nm | PDI [2, 9]: 0.12 | Average particle size [2, 10]: 240 nm | PDI [2, 10]: 0.15 | Average particle size [2, 11]: 420 nm | PDI [2, 11]: 0.25 | Average particle size [2, 12]: 417 nm | PDI [2, 12]: 0.26 | Average particle size [2, 13]: 320 nm | PDI [2, 13]: 0.21 | Average particle size [2, 14]: 250 nm | PDI [2, 14]: 0.07
SMILES: Cc1nc2n(c(=O)c1CCN1CCC(c3noc4cc(F)ccc34)CC1)CCCC2O (stereo not shown) [Paliperidone]
solubility [1]: Paliperidone (purity 98%), molecular weight: 426.48, solubility: 30 µg/ml.

SMILES: N[C@@H](Cc1cc(I)c(Oc2cc(I)c(O)c(I)c2)c(I)c1)C(=O)O [levothyroxine sodium]
solubility [1]: levothyroxine sodium (purity 99%), molecular weight: 800.87, solubility: 150 µg/ml
